Drawing on ChEMBL document CHEMBL1129086, “Design of a novel cognitive enhancer (8S, 10aS)-8-carbamoyl-1,2,3,6,7,8,9,10a-octahydro-5H,10H-pyrrolo[1,2-a][1,4]diazocin-5,10-dione” (1996), this text covers Activity and Response for seven compounds.

Activity calls are given as the source filed them. The calls are words filed in the database; no cut-off is given here. Where a SMILES comes first, the peptide text is derived from it. Bridges are numbered along the chain shown (N, C = ends). [ ]: non-standard residue; d: D form. pGlu = O=C1CC[C@@H](C(=O)O)N1

The species named for test [1] is Mus musculus. Description: Compound was tested for sedative action in mice by neuropharmacological test; No effect. The test is classed as functional, organism-based.
Test [2] is filed under the species Mus musculus. Description: Compound was tested for myorelaxant action in mice by neuropharmacological test; No effect. The test is classed as functional, organism-based.
For test [3], the species on record is Mus musculus. Description: Compound was tested for psychomotor activation on CNS in mice by neuropharmacological test; No effect. The test is classed as functional, organism-based. The note with it: Central nervous system.
Test [4] is filed under the species Mus musculus. Description: Compound was tested for motor impairment in mice by neuropharmacological test; No effect. It counts as functional, organism-based.
For test [5], the system named is Rattus norvegicus. Kind of test: Antiamnesic potency was discovered in the passive avoidance test in rats at a dose 1.0 mg/kg (p<0.05); Amnesia reversed. The test is classed as functional, organism-based. Also on record: dose 1 mg/kg.
Test [6] concerns Rattus norvegicus. Kind of test: Antiamnesic potency was discovered in the passive avoidance test in rats at a dose 0.1 mg/kg (p<0.05); Amnesia reversed. The test is classed as functional, organism-based. More on the design: dose 0.1 mg/kg.
For test [7], the system named is Rattus norvegicus. Description: Compound was tested for amnesia response against scopolamine induced rats by passive avoidance test at a dose 1 mg/kg. The test is classed as functional.

In the case of `CC(C)(C)OC(=O)N[C@@H](CCC(=O)O)C(=O)O`, the result in test [1], in test [2], in test [3] and in test [4] was inactive.

Take `O=C(COC(=O)[C@@H]1CCC(=O)N2CCC[C@H]2C(=O)N1)NC(c1ccccc1)c1ccccc1`: the outcome in test [1], in test [2], in test [3] and in test [4] was inactive.

For `NC(=O)[C@@H]1CCC(=O)N2CCC[C@H]2C(=O)N1` (Pro-Glu-NH2; lactam N-2), the Activity entry in test [5] and in test [6] was “Amnesia reversed” throughout. Besides, the outcome in test [1], in test [2], in test [3] and in test [4] was inactive. For the same compound, in test [7], the Response amounted to 83%.

Turning to `CC(C)(C)OC(=O)N[C@@H](CCC(=O)O)C(=O)OCC(=O)NC(c1ccccc1)c1ccccc1`, the result in test [1], in test [2], in test [3] and in test [4] was inactive.

For the compound `NC(=O)[C@@H]1CCCN1C(=O)[C@H](Cc1c[nH]cn1)NC(=O)[C@@H]1CCC(=O)N1`, the outcome in test [1], in test [2], in test [3] and in test [4] was inactive.

Turning to `NC(=O)CC[C@H](NC(=O)[C@@H]1CCC(=O)N1)C(=O)N1CCC[C@H]1C(N)=O` ([pGlu]-Gln-Pro-NH2), the outcome in test [1], in test [2], in test [3] and in test [4] was inactive.

With `CC(C)(C)OC(=O)N[C@@H](CCC(=O)N1CCC[C@H]1C(=O)O)C(=O)OCC(=O)NC(c1ccccc1)c1ccccc1`, the result in test [1], in test [2], in test [3] and in test [4] was inactive.
